We go through one compound from patent publication US11497749B2, “Mitoflavoscins: targeting flavin-containing enzymes eliminates cancer stem cells (CSCS) by inhibiting mitochondrial respiration” (LUNELLA BIOTECH, INC., priority 2017, dated 2022).

Like-named read-outs stand apart in the source and are kept apart here. Where only a bound is given, the exact number is not on record here.

Series [1] relates to MCF7 cells. Particulars: five days of treatment, concentration as high as 33 nM.
Method: (§3) The inventors used a Sulphorhodamine (SRB) assay, which is based on the measurement of cellular protein content. After treatment for five days in 96-well plates, cells were fixed with 10% trichloroacetic acid (TCA) for 1 hour in the cold room, and were dried overnight at room temperature. Then, cells were incubated with SRB for 15 min, washed twice with 1% acetic acid, and air dried for at least 1 hour. Finally, the protein-bound dye was dissolved in a 10 mM Tris, pH 8.8 solution and read using the plate reader at 540-nm.
Series [2] deals with MCF7 cells. As to the kind of experiment: cells. To be noted: Homo sapiens, MCF7, 120 h, read-out: IC-50, reduction of CD44+/CD24- cell population.
Method: Inventors examined specific cell surface markers, namely fluorescent antibody probes directed against CD44 and CD24. The CD44+/CD24-cell population represents a CSC-enriched fraction. 1×10^5 MCF7 cells were plated in 6-well plates in complete media supplemented with 10% heat-inactivated FBS. […] Vehicle alone (DMSO) control cells were processed in parallel. Briefly, 30,000-50,000 live cells, as identified by 7-AAD dye staining, were analyzed for CD24/CD44 expression. Inventors used CD24 (IOTest CD24-PE, Beckman Coulter) and CD44 (APC mouse Anti-Human CD44, BD Pharmingen) antibodies for fluorescence activated cell sorting (FACS) analysis, using the BD LSR Fortessa (BD Bioscience). […] One-way ANOVA was used with Bonferroi's multiple comparisons test.
The test system of series [3] is MCF7 cells. In words: cells. To be noted: Homo sapiens. How it is done:
Cells were grown for 5 days and maintained in a humidified incubator at 37° C. at an atmospheric pressure in 5% (v/v) carbon dioxide/air.

The subject of series [4] is MCF7 cells. Particulars: 500 nM DPI, 72 hours. How it is done: Assays were performed according to the manufacturer's protocol.
In series [5] the test system is hTERT-BJ1 cells. Particulars: five days of incubation, up to 100 nM.
Method: as §3
Series [6] concerns MCF7 cells. Particulars: various concentrations, 1, 3 or 5 days, normalized to vehicle. How it is done:
To confirm that the observed increase in ECAR corresponded to L-lactate production, L-lactate levels were measured directly using the ISCUS^flex Microdialysis Analyser (M Dialysis Inc., MA, USA). Culture media were collected, centrifuged and analysed with the ISCUS^flex Microdialysis Analyzer after treatment of MCF7 cells with various concentrations of DPI for 1, 3 or 5 days. Calibration of the instrument was performed by samples provided by the manufacturer. Then L-lactate levels were measured and normalized to samples taken from MCF7 cells treated with vehicle only.

For series [7], the system named is C. elegans. To be noted: during response to oxidative stress; cited from earlier work.
In series [8] the test system is MCF7 cells. An excerpt:
(§1) A number of methods may be used for functional validation, including, for example, metabolic flux analysis, mammosphere assays, viability assays, and antibiotic (anti-bacterial and/or anti-fungal) activity. The inventors determined real-time oxygen consumption rates (OCR) and extracellular acidification rates (ECAR) in MCF7 cells using the Seahorse Extracellular Flux (XF96) analyzer (Seahorse Bioscience, Mass., USA). Briefly, MCF7 cells were maintained in DMEM supplemented with 10% FBS (fetal bovine serum), 2 mM GlutaMAX, and 1% Pen-Strep. 8,000 cells per well were seeded into XF96-well cell culture plates, and incubated overnight at 37° C. in a 5% CO2 humidified atmosphere. The next day, cells were washed in pre-warmed XF assay media (for OCR measurement, XF assay media was supplemented with 10 mM glucose, 1 mM Pyruvate and adjusted at pH 7.4). Cells were then maintained in 175 μL/well of XF assay media at 37° C., in a non-CO2 incubator for 1 hour. During incubation, 25 μL of 80 mM glucose, 9 μM oligomycin, 1M 2-deoxyglucose (for ECAR measurement) and 25 μL of 10 μM oligomycin, 9 μM FCCP, 10 μM rotenone, 10 μM antimycin A (for OCR measurement) in XF assay media was loaded into the injection ports of the XFe-96 sensor cartridge. During the experiment, the instrument injected these inhibitors into the wells at a given time point, while ECAR/OCR was measured continuously. ECAR and OCR measurements were normalized by protein content (Sulphorhodamine B assay). Data sets were analyzed by XFe-96 software, using one-way ANOVA and Student's t-test calculations. All experiments were performed in triplicate.
(§2) Given DPI's high potency, inventors assessed its ability to rapidly affect cell metabolism.

Series [9] relates to MCF7 cells. To be noted: 24 hours. The method, then:
Inventors hypothesized that possible mechanism by which DPI inhibits CSC propagation is by inducing mitochondrial reactive oxygen species (ROS) production. To test this hypothesis, inventors determined the effects of DPI on mitochondrial ROS production, over the range of 5 to 50 nM. Briefly, production of superoxide by mitochondria was measured by the MitoSOX™ Red mitochondrial superoxide indicator (ThermoFisher Sci., M36008). 3×10^5 MCF7 cells/well were plated in 6-well plates in complete media supplemented with 10% heat-inactivated FBS. The next day, cells were treated with DPI (5, 50 nM) or Rotenone (0.5 μM) for 24 hours. Vehicle alone (DMSO) for control cells were processed in parallel. At least 30,000 events were recorded by FACS using Fortessa (BD Bioscience). Three biological replicates (repeats) were analyzed in independent experiments.

Series [10] has as its system MCF7 cells. In words: cells.
Excerpt: as §1
It should be appreciated that numerous methods are known for functional validation, and that persons of skill in the art may select one or more depending on the validation needs (e.g., other assays that measure or approximate mitochondrial function).
as §2
To assess the reversibility of DPI's effects, MCF7 cells were first subjected to DPI treatment for 24 hours. Then, DPI was removed (“wash-out”) and the cells were cultured for an additional 24 hours, to allow recovery.
The inventors also examined the effects of long-term treatment with DPI on cells.

The subject of series [11] is MCF7 cells. To be noted: 10 nM, 1 month culture.

As for `c1ccc2c(c1)[I+]c1ccccc1-2` [DPI, Diphenyleneiodonium chloride], the “toxicity / cell viability in MCF7 cells” value in series [1] is given as “little or no toxicity”. Further, the IC50 turned out to be 10 nM in series [2]; 3.23 nM in series [3] (MCF7, 120 h, read-out: IC-50, CSC propagation (mammosphere formation)); 50 nM in series [10] (Homo sapiens, MCF7, 1 h, read-out: IC-50, inhibition of basal respiration). Moreover, the inhibition (in general, how much of the control response was suppressed) at 0.005 µM in series [3] (MCF7, read-out: inhibition of mammosphere formation) was more than 50%. Moreover, the “cell death (number of attached cells by DNA content)” value in series [4] was “did not significantly induce any cell death”. For the same compound, the “reduction of ATP levels” value in series [4] is more than 80%. The “toxic effects / cell viability in normal fibroblasts (hTERT-BJ1)” value in [5] is “little or no toxic effects”. Further, in series [6], the L-lactate production entry is on record as “nearly doubling the amount of lactate produced”. Further, the “accumulation of lipofuscin (aging-associated marker)” value in [7] is listed as “prevents the accumulation of lipofuscin”. Moreover, the “effect on ECAR” value in series [8] (2.5 nM, 24 hours of treatment) was “little or no effect”. For the same compound, the increase of glycolysis in [8] (10 nM, 24 hours of treatment) is approximately 2 fold; in [8] (one-hour treatment, 5 to 100 nM) it was “effectively doubled”. Besides, the “mitochondrial ROS production” value is recorded as “failed to induce any detectable mitochondrial ROS production” in series [9] (5 nM, relative to vehicle) and “induced the same amount of mitochondrial ROS as 500 nM Rotenone” in [9] (50 nM, versus positive control Rotenone). The “effect on OCR” value in series [10] (2.5 nM, 24-hour treatment) is given as “little or no effect”. In addition, the “reduction of basal respiration” value in series [10] (5 nM, 24-hour treatment) is approximately 50%. The “decrease of basal respiration rate” value in series [10] (10 nM, 24-hour treatment) is on record as approximately 85%. The “reduction in ATP production (ATP-linked respiration)” value in series [10] (10 nM, 24-hour treatment) is on record as more than 90%. Besides, in series [10] (1 month culture with 10, 25 and 50 nM), the “inhibition of mitochondrial respiration after long-term treatment” value is recorded as “near complete inhibition of respiration”. The “morphology and density of the cells” value in series [11] is “remains unchanged”.
